Test results reported in PMC3880013, “Toward an Understanding of Agonist Binding to Human Orexin-1 and Orexin-2 Receptors with G-Protein-Coupled Receptor Modeling and Site-Directed Mutagenesis” (Biochemistry, 2013).
Marks after values point to notes of the source that are not given here.

Experiments:
Assay in all cases: Calcium flux assay, CHO-K1 cells stably expressing Orexin receptor mutant
Type in all cases: cell-based, human
hOX2 F227W = hOX2 F227W (5.42) relative to wild type, CHO-K1, Fluo-4AM, this work
Method: (§1) A combination of overlap and mismatch polymerase chain reaction (PCR) was used to introduce mutations into the corresponding Orexin-1 and Orexin-2 cDNAs as described by us previously.[62] Each mutation was made via the generation of two overlapping PCR fragments with PfuUltra II Fusion HS DNA Polymerase (Strategene). The two products were extracted, and a second round of PCR was performed via combination of both fragments with 5′ and 3′ gene specific primers (containing BamHI and NotI restriction sites, respectively). The resulting gel-purified products were then cloned into expression vector pFB-Neo for subsequent generation of stable cell lines. Constructs were confirmed via sequencing. Each verified cDNA was subsequently used to generate single, stably expressing clones in the CHO-K1 cell line.
(§2) Standard calcium flux assays were used to assess the functionality of each OX receptor mutant. Each CHO-K1 Orexin mutant was seeded into tissue culture-treated, 384-well, black clear-bottom plates (CellBind Corning 7086), at a density of 7500 cells/well in culture medium and maintained in an incubator (5% CO2 at 37 °C) overnight. The cell medium was removed, and the cells were incubated in 20 μL of assay buffer (4 μM Fluo-4AM in HBSS with 0.1% BSA) for 90 min at 37 °C. After incubation, the dye was removed and 45 μL of fresh buffer, without dye, was applied. Antagonists (5 μL) were applied, and after incubation for an additional 20 min at 37 °C, 20 μL of receptor specific agonists was applied and the calcium flux monitored using a Flex Station (Molecular Devices) over a period of 1 min. In all cases, the EC80 specific for the individual mutant as determined in previous experiments was reported.

hOX1 Q179A = hOX1 Q179A (4.60) vs wild type, CHO-K1, Fluo-4AM, this work
Method: as §1, §2

hOX1 Y311F = hOX1 Y311F (6.48) relative to wild type, CHO-K1, Fluo-4AM, this work
Method: as §1, §2

hOX2 Q187A = hOX2 Q187A (4.60) relative to wild type, CHO-K1, Fluo-4AM, this work
Method: as §1, §2

hOX2 Q134A = hOX2 Q134A (3.32) relative to wild type, CHO-K1, Fluo-4AM, this work
Method: as §1, §2

Substance: Orexin-B
- ratio EC50(mut)/EC50(WT) (hOX2 F227W): 75.0 ^d fold
- fold improvement in potency relative to wild type (hOX1 Q179A): 72.2 fold improvement
- ratio EC50(mut)/EC50(WT) (hOX1 Y311F): 0.85 ^d fold
- ratio EC50(mut)/EC50(WT) (hOX2 Q187A): 1.7 ^d fold
- ratio EC50(mut)/EC50(WT) (hOX2 Q134A): 5.1 ^d fold
